According to US9890202B2, “Peptides based on the transmembrane domain of a toll-like receptor (TLR) for treatment of TLR-mediated diseases” (Yeda Research and Development Co. Ltd., priority 2010, dated 2018):
Ends that are not written are not given here.

Key:
XTT cytotoxicity assay = format: cell-based; details: mouse, RAW264.7 murine macrophages, RAW264.7 cells, 2 hours incubation, 0.78-100 μM, read-out: LC50 (Lethal Concentration at which 50% of cells die)
Protocol: 1×10^4 cells (RAW264.7 murine macrophages, ATCC® Number-TIB-71) per well were grown over night on a 96-well plate. The following day, the media were replaced with 90 μl fresh culture medium and 10 μl solution buffer containing different concentrations of the different peptides mTLR2 TM N′-CtoA (SEQ ID NO:88), mTLR2 TM C′-CtoA (SEQ ID NO:86), mTLR1 TM N′ (SEQ ID NO:77) and mTLR1 TM C′-CtoA (SEQ ID NO:83). Peptide concentrations range from 0.78-100 μM. The cells were then incubated for 2 hours before adding to each well 50 μl of 2,3-bis[2-methoxy-4-nitro-5-sulfophenyl]-2H-tetrazolium-5-carboxanilide inner salt (XTT) reaction solution (Biological Industries). Viability was determined as described previously (Papo et al., 2004 and Papo et al., 2006). The LC50 (the concentration at which 50% of the cells die) for each peptide was obtained from the dose-dependent cell viability curves.

TLR2 [1] = test: Murine model of acute septic shock caused by LTA (TLR2 hyperactivation); format: in vivo, mice; details: during the whole experiment
Protocol: To examine the effect of TLR TM peptides on acute septic shock driven by TLR2 hyperactivation we have used a murine model as previously described (Meng et al., 2004). Briefly, 12 weeks old C57 Black female mice (supplied by Harlan) were treated with 100 μg of LTA injected IP in a saline solution (pH 6.5) containing 200 μg/ml of D-galactoseamine (Calbiochem). Treated mice received two injections of peptide at doses of 1, 5 and 10 mg/kg. First injection was given at the time of LTA injection, second injection was given 2 hrs (1 mg/kg) or 12 hrs (5 and 10 mg/kg) later. Animals were monitored for survival for 96 hours after LTA injection. Peptides used for in-vivo experiments were treated twice with 20% acetic acid in order to replace the trifluoroacetate anion added during HPLC purification. For all groups n=8.
In order to test the activity of our peptides in-vivo, we have used a murine model for acute septic shock caused by hyperactivation of TLR2. Mice were injected i.p. with 100 μg of LTA and then treated with mTLR2 TM C′-CtoA peptide (SEQ ID NO:86) in different regimes (see materials and methods section (xi)) or with saline only.

TLR4 = test: NFkB luciferase reporter in PC3 cells activated with LPS; format: cell-based, human; details: peptide 20 μM, LPS 1 μg/ml
Protocol: (§1) Cells were transfected with a luciferase plasmid under the transcriptional control of NFkB. Upon activation, NFkB trans-locates to the nucleus and induces the expression of luciferase. Cells were activated in the presence of LTA (50 μg/ml) or LPS (1 μg/ml) for 24 hours and were incubated for 2 hours with the hTLR2 TM C′ peptide (SEQ ID NO:83) ([…]) prior to the addition of the activator and washed twice with PBS. Detection of Luc expression was performed by the Steady-Glo assay kit.
(§2) The NFkB responsive element has been widely researched and is known to serve as a specific indication for the presence of the NFkB molecule inside the nucleus. Such a translocation occurs upon activation of the signaling cascade of TLRs, which leads to targeted transcription. This DNA element was introduced into a Luciferase expressing plasmid upstream to the gene thus generating a reporter plasmid for the presence of NFkB in the nucleus. Cells were transfected with the plasmid and 24 hours later were treated with LPS/LTA to induce the signaling cascade through TLR4 and TLR2, respectively. To validate activation, the levels of Luc expression were evaluated using the Steady-Glo kit (Promega) according to manufactures instructions.

PC3 cells = test: mRNA expression of TGFβ and VEGF in cells activated with LPS/LTA; format: cell-based, human; details: peptide 20 μM, LPS/LTA stimulation
Protocol: FIGS. 13A-B show mRNA expression of TGFβ (B) and VEGF (A) in LNCaP and PC3 cells in the absence or presence of LPS/LTA and the peptide hTLR2 TM C′ (SEQ ID NO:83) at a concentration of 20 μM.
One of the main features of metastatic cells is their ability to influence their environment due to the secretion of various cytokines. Two of the most influential cytokines are VEGF which induces the formation of blood vessels, and TGFβ which e.g. induces tolerance of immune cells and inhibits apoptosis. We therefore determined the expression of the mRNA of these cytokines in the cells upon their activation with LPS and LTA and the effect of the peptide on the activation. […] These findings lead us to the hypothesis that the presence of the TLRs on PC3 cells contribute to the severity (aggressiveness) of the cancer and its ability to form metastases. Thus, the TLR TM peptides of the invention can be used as new diagnostic biomarkers, which can indicate the rate of growth and the ability of the cells to form metastases.

LNCaP = test: Toxicity to LNCaP cell line; format: cell-based, human; details: up to 100 μM (maximal concentration tested)
Protocol: (§3) We synthesized peptides corresponding to either the N-terminus or C-terminus domains of the TM domains of human TLR1, 2 and 5. Each TM domain was divided into two overlapping sequences (Table 2). Activity and toxicity experiments were performed on a peptide corresponding to the C-terminus domain of the TM domain of human TLR2, including the adjacent 5 amino acids from the putative intracellular domain (SEQ ID NO:83, hTLR2-C in Table 2 below, extended with two lysine residues at each of its termini to increase solubility). The peptide was not toxic to either PC3 or LNCaP cell lines at a concentration of up to 100 μM (the maximal concentration tested, data not shown).

TLR2 [2] = test: NFkB luciferase reporter in PC3 cells activated with LTA; format: cell-based, human; details: peptide 20 μM, LTA 50 μg/ml
Protocol: as §1, §2

PC3 = test: Toxicity to PC3 cell line; format: cell-based, human; details: up to 100 μM (maximal concentration tested)
Protocol: as §3

[3] = tested on: mTLR1 TM peptides (fluorescein labeled donors); test: FRET between fluorescein and rhodamine labeled TM peptides in PC:Cholesterol LUVs; format: binding, mouse; details: rhodamine conjugated acceptor added to fluorescein TLR1 TM donors
Protocol: Large unilamellar vesicles (LUVs) composed of phosphatidylcholine (PC) and cholesterol (10:1, w/w), were prepared using the extrusion method as described previously (Cohen et al, 2008). The fluorescence experiments were performed with pairs of peptides using fluorescein labeled peptides as donors and rhodamine labeled peptides as acceptors. Fluorescence spectra were obtained at room temperature, with excitation set at 494 nm (10 nm slit) and emission scan at 500-600 nm (10 nm slits), by a Cary eclipse fluorescence spectrophotometer (Varian Inc., Palo Alto, Calif.). In a typical experiment, a fluorescein labeled peptide was first added from a stock solution in DMSO (final concentration of 0.1 μM peptide and 0.25% (v/v) DMSO) to a solution containing PC:Cholesterol LUVs (100 μM) in HEPES buffer. This was followed by the successive addition of rhodamine labeled peptides to a final concentration ranging from 0.025 to 0.4 μM. Fluorescence spectra were obtained before and after the addition of the rhodamine labeled peptides. Fluorescence values were corrected by subtracting the changes in emission obtained by adding HEPES only. […]
Fluorescence Resonance Energy Transfer (FRET) analysis was used for exploring the interactions of the synthetic TM peptides within large unilameler vesicles (LUVs). […]

| Substance | CC50 at 2 h (XTT cytotoxicity assay) | also measured |
| --- | --- | --- |
| KKLILLVGALAHHFHGLWKK-NH2 [mTLR2 C′ TM (C to A)] | 50 µM | adverse effects in treated mice (TLR2 [1]): no noticeable adverse effects |
| KKLILLVGALCHHFHGLWKK-NH2 [mTLR2 C′ TM, kkLILLVGALCHHFHGLWkk] | 50 µM |  |
| KKLILLTGVLCHRFHGLWKK-NH2 [hTLR2 TM C′] |  | inhibition of activation (Luc expression) (TLR4): could not inhibit; levels of expression of TGFβ and VEGF mRNA (PC3 cells): drop in the levels of expression; toxicity (LNCaP): not toxic; inhibition of Luc expression (TLR2 [2]): 40%; toxicity (PC3): not toxic |
| KKLAVTGAFLASYFDLPWKK-NH2 [mTLR1 C′ TM (C to A + L605S), kkLAVTGAFLASYFDLPWkk] | > 100 µM |  |
| GLRILLLKV-NH2 (not fully specified; printed as GLRILLLKV-NH2) [Cp, the core TM peptide of TCRα, negative control] |  | fluorescence signal decrease (FRET), negative control [3]: no significant fluorescence signal decrease |
| KKLAVTGAFLCLYFDLPWKK-NH2 [mTLR1 C′ TM, kkLAVTGAFLCLYFDLPWkk] | > 100 µM |  |
| KKLAVTGAFLALYFDLPWKK-NH2 [mTLR1 C′ TM (C to A)] | 50 µM |  |
| KKLLTVTIGATMLVLAVTGAKK-NH2 [mTLR1 N′ TM] | > 100 µM |  |
| KKALVSGVAAALLLLILLVGKK-NH2 [mTLR2 N′ TM (C to A)] | > 100 µM |  |
